The text below walks through data of PubChem BioAssay AID328 (DTP/NCI, 2004).

The subject of this assay is BDF1 mice, P388 leukemia ip, median survival T/C. Description: NCI In Vivo Anticancer Drug Screen. Data for tumor model P388 Leukemia (intraperitoneal) in B6D2F1 (BDF1) mice. To be noted: endpoint: median survival time, higher = longer survival. Summed up: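 Mice carrying the transplantable tumour receive compound or vehicle. Survival is followed in each arm, and the treated measure is divided by the vehicle measure.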

Setting [1] is: dose: 12.5 mg/kg/injection, schedule: Q01DX009 (ip), vehicle: saline.
[2] abbreviates: dose: 25.0 mg/kg/injection, schedule: Q01DX009 (ip), vehicle: Klucel (hydroxypropylcellulose) (HPC).
The mark [3] stands for this setting: dose: 100.0 mg/kg/injection, schedule: Q04DX003 (ip), vehicle: Klucel (hydroxypropylcellulose) (HPC).
Setting [4] is: dose: 100.0 mg/kg/injection, schedule: Q01DX009 (ip), vehicle: saline.
Where [5] appears, read: dose: 200.0 mg/kg/injection, schedule: Q01DX009 (ip), vehicle: saline.
The mark [6] stands for this setting: dose: 50.0 mg/kg/injection, schedule: Q01DX009 (ip), vehicle: saline.
[7] abbreviates: dose: 200.0 mg/kg/injection, schedule: Q04DX003 (ip), vehicle: Klucel (hydroxypropylcellulose) (HPC).
The mark [8] stands for this setting: dose: 400.0 mg/kg/injection, schedule: Q04DX003 (ip), vehicle: Klucel (hydroxypropylcellulose) (HPC).
[9] abbreviates: dose: 50.0 mg/kg/injection, schedule: Q01DX009 (ip), vehicle: Klucel (hydroxypropylcellulose) (HPC).
[10] abbreviates: dose: 50.0 mg/kg/injection, schedule: Q01DX009 (ip), vehicle: saline with Tween-80.
[11] abbreviates: dose: 100.0 mg/kg/injection, schedule: Q01DX009 (ip), vehicle: saline with Tween-80.
Where [12] appears, read: dose: 100.0 mg/kg/injection, schedule: Q04DX003 (ip), vehicle: saline with Tween-80.
Setting [13] is: dose: 100.0 mg/kg/injection, schedule: Q04DX003 (ip), vehicle: saline.
Setting [14] is: dose: 200.0 mg/kg/injection, schedule: Q04DX003 (ip), vehicle: saline.
[15] abbreviates: dose: 200.0 mg/kg/injection, schedule: Q01DX009 (ip), vehicle: saline with Tween-80.

“And” between values parts separate entries of the source, which are not always exact repeats. Equal values may be shown once. Toxic doses and inconclusive results are not listed.

Consider `CCCCCCC[CH2][Sn](=[O])[CH2]CCCCCCC`, for which the T/C reads like this: (dose: 3.12 mg/kg/injection, schedule: Q01DX009 (ip), vehicle: saline) 120 % of control; (dose: 6.25 mg/kg/injection, schedule: Q01DX009 (ip), vehicle: saline) 100 % of control; under setting [1], 115 % of control; (dose: 22.0 mg/kg/injection, schedule: Q04DX003 (ip), vehicle: other) 109 % of control; under setting [2], 86 % of control; (dose: 33.0 mg/kg/injection, schedule: Q04DX003 (ip), vehicle: Klucel (hydroxypropylcellulose) (HPC)) 100 % of control and 114 % of control. Also, the T/C is, setting by setting: (dose: 33.0 mg/kg/injection, schedule: Q04DX003 (ip), vehicle: other) 118 % of control; (dose: 50.0 mg/kg/injection, schedule: Q04DX003 (ip), vehicle: other) 100 % of control; under setting [3], 90 % of control.
`Nc1cc(S(N)(=O)=O)ccc1SSc1ccc(S(N)(=O)=O)cc1N`: the T/C was 122 % of control under setting [4] and 154 % of control under setting [5].
In the case of `S=C(S)N1CCN(C(=S)S)CC1`, the T/C was 100 % of control and 104 % of control and 110 % of control (dose: 25.0 mg/kg/injection, schedule: Q01DX009 (ip), vehicle: saline); 91 % of control (dose: 35.0 mg/kg/injection, schedule: Q01DX009 (ip), vehicle: saline); 95 % of control and 105 % of control under setting [6]; 95 % of control under setting [4]; 86 % of control under setting [5].
Consider `CCOC(=O)C(=CN(C)c1ccc([N+](=O)[O-])cc1)C(=O)OCC`, for which the T/C is 100 % of control (dose: 50.0 mg/kg/injection, schedule: Q01DX009 (ip), vehicle: other); 103 % of control (dose: 100.0 mg/kg/injection, schedule: Q01DX009 (ip), vehicle: other); 109 % of control (dose: 200.0 mg/kg/injection, schedule: Q01DX009 (ip), vehicle: other).
In the case of `CC1(C)C2CC3C(C(=O)O)CCCC3(C2)C1Br` (configuration not stated), the T/C by setting is: under setting [3], 90 % of control; under setting [7], 100 % of control; under setting [8], 95 % of control.
On to `Nc1cccc(OCCCCCOc2cccc(N)c2)c1`, for which the T/C (dose: 12.5 mg/kg/injection, schedule: Q01DX009 (ip), vehicle: Klucel (hydroxypropylcellulose) (HPC)) was 96 % of control; the T/C under setting [2] is 108 % of control; the T/C under setting [9] is 94 % of control.
Turning to `NC(=O)C1(c2ccccc2)CCN(Cc2ccccc2)CC1`, the T/C is, setting by setting: under setting [10], 96 % of control; (dose: 50.0 mg/kg/injection, schedule: Q04DX003 (ip), vehicle: saline with Tween-80) 100 % of control; under setting [11], 111 % of control; under setting [12], 90 % of control.
With `Cc1cccc(=O)n1CCC#N`, the T/C under setting [13] was 96 % of control; the T/C under setting [14] was 96 % of control; the T/C (dose: 400.0 mg/kg/injection, schedule: Q04DX003 (ip), vehicle: saline) is 100 % of control.
For `Cc1[nH]nc(-c2ccon2)c1N`, the T/C runs as follows: under setting [10], 115 % of control; under setting [11], 119 % of control; under setting [15], 113 % of control.
Consider `CCOC(=O)C(C(=O)OCC)=C(C)C`, for which the T/C runs as follows: under setting [3], 100 % of control; under setting [7], 88 % of control; (dose: 400.0 mg/kg/injection, schedule: Q01DX009 (ip), vehicle: saline with Tween-80) 150 % of control; under setting [8], 103 % of control.
Turning to `CCS(=O)(=O)OCCCCOS(=O)(=O)CC`, the T/C under setting [11] is 108 % of control.
As for `O=NN(CCCl)C(=O)Nc1ccc(CCCl)cc1`, the T/C is, setting by setting: (dose: 37.5 mg/kg/injection, schedule: Q01DX009 (ip), vehicle: other) 90 % of control; (dose: 37.5 mg/kg/injection, schedule: Q04DX003 (ip), vehicle: other) 120 % of control; (dose: 66.0 mg/kg/injection, schedule: Q04DX003 (ip), vehicle: other) 90 % of control; (dose: 75.0 mg/kg/injection, schedule: Q01DX009 (ip), vehicle: other) 100 % of control; (dose: 75.0 mg/kg/injection, schedule: Q04DX003 (ip), vehicle: other) 120 % of control; (dose: 99.0 mg/kg/injection, schedule: Q04DX003 (ip), vehicle: other) 95 % of control. For the same molecule, the T/C (dose: 150.0 mg/kg/injection, schedule: Q01DX009 (ip), vehicle: other) is 105 % of control; the T/C (dose: 150.0 mg/kg/injection, schedule: Q04DX003 (ip), vehicle: other) was 255 % of control and 95 % of control; the T/C (dose: 225.0 mg/kg/injection, schedule: Q04DX003 (ip), vehicle: other) is 100 % of control.
As for `CC1(C)C2CC3C(=CCCC3(Cl)C#N)C1C2` (configuration not stated), the T/C was 100 % of control under setting [3], 95 % of control under setting [7] and 95 % of control under setting [8].
For the molecule `COc1ccc(C)cc1NN`, the T/C under setting [1] was 100 % of control; the T/C under setting [6] was 100 % of control; the T/C (dose: 50.0 mg/kg/injection, schedule: Q04DX003 (ip), vehicle: saline) was 109 % of control; the T/C under setting [13] is 104 % of control; the T/C under setting [14] is 95 % of control.
In the case of `Cc1cc(N(C)C)cc(C)c1N=Nc1cc[n+]([O-])cc1`, the T/C reads like this: under setting [10], 104 % of control; under setting [11], 124 % of control.
For the molecule `O=C1c2ccccc2C(=O)c2c(O)c(N3CCCCC3)cc(O)c21`, the T/C was 93 % of control under setting [6]; 97 % of control under setting [4]; 98 % of control under setting [12]; 95 % of control under setting [5]; 109 % of control (dose: 200.0 mg/kg/injection, schedule: Q04DX003 (ip), vehicle: saline with Tween-80); 93 % of control (dose: 400.0 mg/kg/injection, schedule: Q01DX009 (ip), vehicle: saline). Also, the T/C (dose: 400.0 mg/kg/injection, schedule: Q04DX003 (ip), vehicle: saline with Tween-80) is 106 % of control.
For the molecule `O=c1ccc2nccc3c4ccccc4n1c23`, the T/C reads like this: (dose: 100.0 mg/kg/injection, schedule: Q01DX001 (ip), vehicle: saline sonified) 100 % of control; (dose: 200.0 mg/kg/injection, schedule: Q01DX001 (ip), vehicle: saline sonified) 100 % of control; (dose: 400.0 mg/kg/injection, schedule: Q01DX001 (ip), vehicle: saline sonified) 100 % of control.
With `Oc1c(Cl)cc(Cl)c2cccnc12`, the T/C runs as follows: (dose: 12.5 mg/kg/injection, schedule: Q01DX010 (ip), vehicle: carboxymethylcellulose (CMC)) 104 % of control; (dose: 25.0 mg/kg/injection, schedule: Q01DX010 (ip), vehicle: carboxymethylcellulose (CMC)) 104 % of control; (dose: 50.0 mg/kg/injection, schedule: Q01DX010 (ip), vehicle: carboxymethylcellulose (CMC)) 104 % of control.
With `Cc1ccc(C2(C#N)CCCC2)cc1`, the T/C under setting [11] is 104 % of control and the T/C under setting [15] is 113 % of control.
Regarding `COC(=O)N(CCCl)N=O`, the T/C runs as follows: (dose: 2.5 mg/kg/injection, schedule: Q01DX001 (ip), vehicle: saline with Tween-80) 109 % of control; (dose: 5.0 mg/kg/injection, schedule: Q01DX001 (ip), vehicle: saline with Tween-80) 109 % of control; (dose: 10.0 mg/kg/injection, schedule: Q01DX001 (ip), vehicle: saline with Tween-80) 123 % of control.
As for `O=C(Nc1cccc(C(F)(F)F)c1)Nc1nccs1`, the T/C under setting [2] is 121 % of control; the T/C under setting [9] is 111 % of control; the T/C (dose: 100.0 mg/kg/injection, schedule: Q01DX009 (ip), vehicle: Klucel (hydroxypropylcellulose) (HPC)) is 102 % of control; the T/C (dose: 200.0 mg/kg/injection, schedule: Q01DX009 (ip), vehicle: Klucel (hydroxypropylcellulose) (HPC)) was 104 % of control.
As for `O=Cc1[nH]c(=S)[nH]c(=O)c1Cc1ccccc1Cl`, the T/C by setting is: under setting [3], 100 % of control; under setting [7], 100 % of control; under setting [8], 100 % of control.
Consider `COC(=O)CCC(=O)c1ccc(OC)c(OC)c1`, for which the T/C was 115 % of control under setting [10], 99 % of control under setting [11] and 99 % of control under setting [15].
